According to patent US20090117563A1, “Identification of TRPML3 (MCOLN3) as a Salty Taste Receptor and Use in Assays for Identifying Taste (Salty) Modulators and/or Therapeutics that Modulate Sodium Transport, Absorption or Excretion and/or Aldosterone and/or Vasopressin Production or Release” (priority 2007, published 2009):

Molecular target: T1, A419P TRPML3 (Homo sapiens, UniProt Q8TDD5, A419P)
T1 construct: expressed in transfected cells
T1 sequence (Q8TDD5 1-553 A419P): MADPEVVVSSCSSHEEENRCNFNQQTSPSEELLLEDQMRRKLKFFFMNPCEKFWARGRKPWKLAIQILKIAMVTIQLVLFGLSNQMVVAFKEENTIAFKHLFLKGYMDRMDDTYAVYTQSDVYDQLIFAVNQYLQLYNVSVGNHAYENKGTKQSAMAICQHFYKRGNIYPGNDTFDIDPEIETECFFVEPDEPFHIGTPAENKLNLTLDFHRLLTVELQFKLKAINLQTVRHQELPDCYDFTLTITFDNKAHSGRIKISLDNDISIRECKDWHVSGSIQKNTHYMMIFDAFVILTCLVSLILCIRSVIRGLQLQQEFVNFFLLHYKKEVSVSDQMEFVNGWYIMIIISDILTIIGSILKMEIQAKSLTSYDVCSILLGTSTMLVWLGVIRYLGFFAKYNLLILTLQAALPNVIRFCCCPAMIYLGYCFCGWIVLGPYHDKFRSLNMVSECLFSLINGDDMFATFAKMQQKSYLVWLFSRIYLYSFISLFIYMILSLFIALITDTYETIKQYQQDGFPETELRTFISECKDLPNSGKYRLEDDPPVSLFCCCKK
Experiment: FLIPR membrane potential dye assay, HEK293 cells expressing A419P-TRPML3
Type: cell-based
Conditions: for effect on basal fluorescence, dose dependence: increasing concentrations of gadolinium, compared to RFP-transfected cells
From the text: Specific cell-based assays for the discovery of TRPML3 modulators were developed which that could ultimately be used in food and beverages to modulate saltiness perception. A419P-TRPML3 function was monitored in HEK293 cells transiently transfected or transduced with the gene encoding A419P-TRPML3 and using specific membrane potential dyes (FMPs; Molecular Devices).
(§1) HEK293 cells were transiently transfected with RFP, αENaC or A419P-TRPML3 and were loaded with a membrane potential dye (R-8034; Molecular Devices) in HBSS at room temperature for 30 minutes. Membrane potential (fluorescent signal) was monitored on a FLIPR system (Molecular Devices).
(§2) HEK293 cells were transiently transfected with RFP or A419P-TRPML3 and were loaded with a membrane potential dye (R-8034; Molecular Devices) in HBSS at room temperature for 30 minutes. Membrane potential (fluorescent signal) was monitored on a FLIPR system (Molecular Devices).
as §2, with “HBSS, NMDG and increasing concentrations of gadolinium were added to the cells and resulting changes in membrane” for “Membrane”
as §1, with “RFP, A419P-TRPML3 or” for “RFP,”, “plasmid” for “or A419P-TRPML3”, “HBSS (control), 3 mM gadolinium and 30 uM Amiloride were added to the cells and resulting changes in membrane” for “Membrane”

[Cl][Gd]([Cl])[Cl] [gadolinium, gadolinium chloride]
effect on basal fluorescence counts, specificity (3 mM gadolinium, A419P-TRPML3 versus αENaC transfected cells): preferentially reduces basal fluorescence counts
effect on basal fluorescence, dose dependence: significantly reduces the basal fluorescence
effect on basal fluorescence, dose dependence (listed as Gadolinium): reversed the increase in fluorescence in a dose-dependent and specific fashion
effect on basal fluorescence (membrane potential) (transiently transfected HEK293, single addition of gadolinium): significantly reduces the basal fluorescence
